In the supplement of paper PMC10307832:

What was measured:
Experiment in all cases: relative viability (nuclei count vs DMSO), 5 days (fraction); higher = more cells survive
[1] = compound: CN(C)CC1=CC(=CC=C1)N=C(C2=CC=CC=C2)C3=C(NC4=C3C=CC(=C4)C(=O)N(C)C)O + CS(=O)(=O)CCNCc1ccc(-c2ccc3ncnc(Nc4ccc(OCc5cccc(F)c5)c(Cl)c4)c3c2)o1 [Lapatinib] (partner 2 µM)
Procedure, shortened: (§1)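 Relative viability was taken as the ratio of nuclei in treated wells to nuclei in vehicle wells. Lung cancer cell lines in 1536-well plates received compounds by pin tool one day after seeding, either one drug alone or a fixed anchor-drug dose plus five library-drug doses (not always all listed) in √10 steps. Nuclei were counted on 4× images after 5 days of treatment, and values are medians of duplicate plates.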

[2] = compound: CN(C)CC1=CC(=CC=C1)N=C(C2=CC=CC=C2)C3=C(NC4=C3C=CC(=C4)C(=O)N(C)C)O + O=C(c1cc(Cc2n[nH]c(=O)c3ccccc23)ccc1F)N1CCN(C(=O)C2CC2)CC1 [Olaparib] (partner 8 µM)
Procedure, shortened: as §1

[3] = compound: CN(C)CC1=CC(=CC=C1)N=C(C2=CC=CC=C2)C3=C(NC4=C3C=CC(=C4)C(=O)N(C)C)O + Nc1ncn([C@H]2C[C@H](O)[C@@H](CO)O2)c(=O)n1 [Decitabine] (partner 2 µM)
Procedure, shortened: as §1

[4] = compound: CN(C)CC1=CC(=CC=C1)N=C(C2=CC=CC=C2)C3=C(NC4=C3C=CC(=C4)C(=O)N(C)C)O + NC(=O)Nc1cc(-c2cccc(F)c2)sc1C(=O)N[C@H]1CCCNC1 [AZD7762] (partner 0.2 µM)
Procedure, shortened: as §1

| Cell Line | relative viability ([1]; first compound 0.08 µM) | relative viability ([1]; first compound 0.253 µM) | relative viability ([1]; first compound 0.8 µM) | relative viability ([1]; first compound 2.53 µM) | relative viability ([1]; first compound 8 µM) | relative viability ([2]; first compound 0.08 µM) | relative viability ([2]; first compound 0.253 µM) | relative viability ([2]; first compound 0.8 µM) | relative viability ([2]; first compound 2.53 µM) | relative viability ([2]; first compound 8 µM) | relative viability ([3]; first compound 0.08 µM) | relative viability ([3]; first compound 0.253 µM) | relative viability ([3]; first compound 0.8 µM) | relative viability ([3]; first compound 2.53 µM) | relative viability ([3]; first compound 8 µM) | relative viability ([4]; first compound 0.08 µM) | relative viability ([4]; first compound 0.253 µM) | relative viability ([4]; first compound 0.8 µM) | relative viability ([4]; first compound 2.53 µM) | relative viability ([4]; first compound 8 µM) |
| --- | --- | --- | --- | --- | --- | --- | --- | --- | --- | --- | --- | --- | --- | --- | --- | --- | --- | --- | --- | --- |
| NCI-H838 | 0.972 | 1.01 | 1.08 | 0.895 | 0.685 | 0.789 | 0.901 | 0.751 | 0.726 | 0.665 | 0.485 | 0.507 | 0.427 | 0.458 | 0.413 | 0.951 | 0.928 | 0.948 | 0.831 | 0.903 |
| NCI-H1355 | 1.08 | 1.02 | 0.955 | 0.948 | 0.885 | 0.771 | 0.707 | 0.772 | 0.752 | 0.732 | 0.376 | 0.359 | 0.331 | 0.342 | 0.365 | 0.869 | 0.665 | 0.597 | 0.541 | 0.641 |
| NCI-H1395 | 0.948 | 1.14 | 1.2 | 0.892 | 0.943 | 0.499 | 0.445 | 0.416 | 0.492 | 0.448 | 0.752 | 0.757 | 0.759 | 0.727 | 0.758 | 0.406 | 0.343 | 0.446 | 0.39 | 0.42 |
| NCI-H1437 | 0.839 | 0.772 | 0.978 | 0.775 | 0.835 | 0.621 | 0.659 | 0.634 | 0.622 | 0.635 | 0.559 | 0.609 | 0.576 | 0.577 | 0.685 | 1.19 | 1.16 | 1.16 | 1.03 | 1.12 |
| NCI-H1651 | 0.76 | 0.762 | 0.77 | 0.599 | 0.796 | 0.19 | 0.203 | 0.195 | 0.188 | 0.181 | 0.665 | 0.622 | 0.616 | 0.423 | 0.643 | 0.483 | 0.474 | 0.414 | 0.435 | 0.397 |
| NCI-H1666 | 0.868 | 0.616 | 0.887 | 0.668 | 0.774 | 0.763 | 0.761 | 0.785 | 0.754 | 0.797 | 0.694 | 0.715 | 0.68 | 0.769 | 0.744 | 0.908 | 0.857 | 0.847 | 0.764 | 0.852 |
| NCI-H1734 | 1 | 1.08 | 1.02 | 1.02 | 0.881 | 0.547 | 0.611 | 0.672 | 0.633 | 0.515 | 0.526 | 0.491 | 0.455 | 0.564 | 0.493 | 0.644 | 0.532 | 0.506 | 0.56 | 0.526 |
| NCI-H1755 | 1.09 | 0.98 | 1.02 | 0.935 | 1.07 | 0.835 | 0.898 | 0.923 | 0.825 | 0.794 | 0.674 | 0.706 | 0.63 | 0.689 | 0.719 | 0.374 | 0.383 | 0.481 | 0.452 | 0.411 |
| NCI-H1792 | 0.866 | 0.896 | 0.873 | 0.818 | 0.945 | 0.536 | 0.452 | 0.479 | 0.387 | 0.422 | 0.506 | 0.594 | 0.585 | 0.484 | 0.602 | 0.639 | 0.658 | 0.643 | 0.506 | 0.71 |
| NCI-H1793 | 0.79 | 0.665 | 0.569 | 0.823 | 0.891 | 0.924 | 0.774 | 0.678 | 0.95 | 0.758 | 0.53 | 0.509 | 0.52 | 0.49 | 0.644 | 0.527 | 0.386 | 0.407 | 0.346 | 0.436 |
| NCI-H1915 | 0.957 | 0.955 | 1.05 | 0.971 | 0.956 | 0.257 | 0.271 | 0.249 | 0.249 | 0.251 | 0.251 | 0.274 | 0.271 | 0.255 | 0.247 | 0.704 | 0.729 | 0.756 | 0.699 | 0.578 |
| NCI-H1944 | 0.805 | 0.835 | 0.924 | 0.755 | 0.765 | 0.424 | 0.389 | 0.373 | 0.42 | 0.377 | 0.449 | 0.428 | 0.382 | 0.461 | 0.489 | 0.56 | 0.576 | 0.419 | 0.525 | 0.434 |
| NCI-H1975 | 0.948 | 0.81 | 0.835 | 0.742 | 0.951 | 0.773 | 0.829 | 0.815 | 0.755 | 0.754 | 0.45 | 0.409 | 0.368 | 0.397 | 0.381 | 0.756 | 0.761 | 0.68 | 0.692 | 0.707 |
| NCI-H1993 | 1.09 | 0.882 | 0.827 | 0.826 | 0.706 | 0.772 | 1.1 |  | 1.12 | 1.06 | 0.643 | 0.55 |  | 0.617 | 0.687 | 0.59 | 0.705 |  | 0.937 | 0.877 |
| NCI-H2085 | 0.791 | 0.844 | 0.758 | 0.758 | 0.733 | 0.793 | 0.777 | 0.776 | 0.725 | 0.816 | 0.521 | 0.571 | 0.622 | 0.547 | 0.646 | 1.03 | 0.978 | 0.995 | 0.988 | 0.969 |
| NCI-H2087 | 1.08 | 0.835 | 1.1 | 0.942 | 1.05 | 0.571 | 0.507 | 0.41 | 0.536 | 0.537 | 0.385 | 0.368 | 0.267 | 0.266 | 0.236 | 1.13 | 1.28 | 1.36 | 1.45 | 1.33 |
| NCI-H2126 | 0.76 | 0.762 | 0.73 | 0.765 | 0.762 | 0.885 | 0.87 | 0.907 | 0.912 | 0.957 | 0.568 | 0.602 | 0.598 | 0.606 | 0.633 | 0.974 | 0.96 | 0.931 | 0.943 | 0.976 |
| NCI-H2170 | 0.278 | 0.277 | 0.286 | 0.273 | 0.271 | 0.672 | 0.552 | 0.491 | 0.535 | 0.554 | 0.516 | 0.487 | 0.452 | 0.462 | 0.418 | 0.921 | 0.88 | 0.589 | 0.867 | 0.682 |
| NCI-H2347 | 1.01 | 0.899 | 0.975 | 0.953 | 0.963 | 0.536 | 0.584 | 0.593 | 0.572 | 0.575 | 0.631 | 0.634 | 0.583 | 0.635 | 0.679 | 0.898 | 0.647 | 0.7 | 0.719 | 0.734 |
| NCI-H2405 | 1.06 | 1.09 | 1.15 | 0.999 | 0.963 | 0.888 | 0.896 | 0.935 | 0.753 | 0.757 | 0.78 | 0.77 | 0.758 | 0.67 | 0.696 | 0.715 | 0.72 | 0.713 | 0.659 | 0.681 |
| NCI-H3122 | 0.96 | 0.971 | 1.01 | 0.983 | 0.997 | 0.587 | 0.587 | 0.678 | 0.59 | 0.721 | 0.508 | 0.387 | 0.454 | 0.504 | 0.46 | 1.01 | 0.967 | 1.03 | 1.02 | 1.07 |
| PC-3 [JPC-3] | 0.436 | 0.458 | 0.435 | 0.465 | 0.444 | 1.12 | 1.05 | 1.01 | 1.12 | 1.11 | 0.761 | 0.763 | 0.804 | 0.837 | 0.842 | 0.872 | 0.938 | 0.753 | 0.806 | 1.02 |
| PC-14 | 0.33 | 0.264 | 0.38 | 0.313 | 0.311 | 0.325 | 0.212 | 0.23 | 0.294 | 0.312 | 0.254 | 0.214 | 0.213 | 0.236 | 0.25 | 0.392 | 0.395 | 0.377 | 0.387 | 0.411 |
| RERF-LC-KJ | 0.917 | 0.882 | 0.834 | 0.793 | 0.859 | 0.971 | 0.906 | 0.882 | 0.9 | 0.904 | 0.746 | 0.644 | 0.801 | 0.671 | 0.713 | 1.02 | 1 | 0.796 | 1.05 | 0.866 |
